Data as given in ChEMBL document CHEMBL1201862, “PubChem BioAssay data set” (2004).
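Growth conditions: 96-well plates. Treatment: test compound, 48 hours, 5 concentrations. Analysis: linear interpolation between bracketing concentrations; unreached endpoints set to highest concentration. At the GI50, growth is halved.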 Activity calls are given as the source filed them. Rule as the data show it: active = GI50 up to about 1.1 µM and inactive = higher.

Assays:
Experiment in all cases: DTP human tumour cell line panel, 48 h
M19-MEL = tested on: M19-MEL
LXFL 529 = tested on: LXFL 529
DMS-273 = tested on: DMS-273
XF498 = tested on: XF498
RXF 631 = tested on: RXF 631
DLD-1 = tested on: DLD-1
MCF7 = tested on: MCF7
SNB-78 = tested on: SNB-78
BT-549 = tested on: BT-549

| Structure (SMILES) | GI50 (M19-MEL) | GI50 (LXFL 529) | GI50 (DMS-273) | GI50 (XF498) | GI50 (RXF 631) | GI50 (DLD-1) | GI50 (MCF7) | GI50 (SNB-78) | GI50 (BT-549) |
| --- | --- | --- | --- | --- | --- | --- | --- | --- | --- |
| O=C(CCn1[nH]c(=O)c(Cl)c(Cl)c1=O)NNC(=O)C[n+]1ccccc1 | > 100 µM (inactive) | > 100 µM (inactive) | > 100 µM (inactive) | > 100 µM (inactive) | > 100 µM (inactive) | > 100 µM (inactive) |  |  |  |
| COC(=O)C1=C(C=O)C2C=CC1C2 (configuration not stated) | > 45 µM (inactive) | 21.1 µM (inactive) | > 44.2 µM (inactive) | 27.2 µM (inactive) | > 100 µM (inactive) | 27.9 µM (inactive) | > 100 µM (inactive) | 74.1 µM (inactive) | > 100 µM (inactive) |
| O=[N+]([O-])c1cc([N+](=O)[O-])c(C(Cl)C(Cl)c2ccccc2)cc1C(Cl)C(Cl)c1ccccc1 (configuration not stated) | 1.83 µM (inactive) | 1.54 µM (inactive) | 2.03 µM (inactive) | 1.87 µM (inactive) | 2.07 µM (inactive) | 1.71 µM (inactive) |  | 2.99 µM (inactive) |  |
| Cn1nc(-c2ccccc2)c(C(=O)/C=C/c2ccc(F)cc2)c(N2CCCCC2)c1=O | 8.36 µM (inactive) | 4.68 µM (inactive) | 4.03 µM (inactive) | 21.1 µM (inactive) | 8.61 µM (inactive) | 3.61 µM (inactive) |  |  |  |
| CCOC(=N)CC(=O)Nc1ccccc1CC | > 100 µM (inactive) | > 100 µM (inactive) | > 100 µM (inactive) | > 100 µM (inactive) | > 100 µM (inactive) | > 100 µM (inactive) |  | > 100 µM (inactive) |  |
| O=c1[nH]cc(C(F)(C(F)(F)F)C(F)(F)F)c(=O)[nH]1 | > 100 µM (inactive) | > 100 µM (inactive) | > 100 µM (inactive) | > 100 µM (inactive) | > 100 µM (inactive) | > 100 µM (inactive) |  | > 100 µM (inactive) |  |
| CCCCCCCCCCCCCCCC(=O)OCCOCCOCCOCCOCCOC(=O)CCCCCCCCCCCCCCC | > 100 µM (inactive) | > 100 µM (inactive) | > 100 µM (inactive) |  | > 100 µM (inactive) | > 100 µM (inactive) |  | > 100 µM (inactive) |  |
| Cc1cc(=O)oc2cc(OCCCOc3ccc4c(C)cc(=O)oc4c3)ccc12 | > 100 µM (inactive) | > 100 µM (inactive) | 91.4 µM (inactive) | 31.3 µM (inactive) | > 100 µM (inactive) | > 100 µM (inactive) |  |  |  |
| O=c1[nH]c(-c2ccccc2)nc2cc(Cl)ccc12 | > 100 µM (inactive) | > 100 µM (inactive) | > 100 µM (inactive) | > 100 µM (inactive) | > 100 µM (inactive) | > 100 µM (inactive) |  | > 100 µM (inactive) |  |
| O=c1c(O)c(-c2ccccc2)n(O)c2ccc(Cl)cc12 |  | 23.8 µM (inactive) | 20.3 µM (inactive) |  | 27.5 µM (inactive) | 26.8 µM (inactive) |  | 37.3 µM (inactive) |  |
| CC(C)(C)C#C[P+](c1ccccc1)(c1ccccc1)c1ccccc1 |  | 0.0586 µM (active) |  |  | 1 µM (active) | 0.191 µM (active) |  | 0.339 µM (active) |  |
| CC(Oc1ccc2cc(C(=O)c3ccccc3)c(=O)oc2c1)C(=O)O (configuration not stated) | > 100 µM (inactive) | > 100 µM (inactive) |  | > 100 µM (inactive) | > 100 µM (inactive) |  |  | > 100 µM (inactive) |  |
| COc1ccc(Cc2nc3ccccc3s2)cc1OC | 15.6 µM (inactive) | 17.5 µM (inactive) | 15.6 µM (inactive) | 15.3 µM (inactive) | 17.7 µM (inactive) | 16.6 µM (inactive) |  | 19.8 µM (inactive) |  |
| COc1cc(C[C@H]2c3cc(OC)c(OC)cc3CCN2C)c(Oc2cc3c(cc2OC)-c2c(OC)c(OC)cc4c2[C@H](C3)N(C)CC4)cc1OC [THALICARPINE] | 8.87 µM (inactive) | 11 µM (inactive) | 10.7 µM (inactive) | 8.97 µM (inactive) | 5.52 µM (inactive) | 15.1 µM (inactive) | 12.2 µM (inactive) |  | 6.52 µM (inactive) |
| CC(C)NCC(O)COC(=O)c1cccs1 (configuration not stated) | > 100 µM (inactive) | > 100 µM (inactive) | > 100 µM (inactive) | > 100 µM (inactive) | > 100 µM (inactive) | > 100 µM (inactive) |  | > 100 µM (inactive) |  |
| COc1ccc(SS(=O)(=O)c2ccc(OC)cc2)cc1 | 19.5 µM (inactive) | 17.7 µM (inactive) |  |  | 39 µM (inactive) | 21.9 µM (inactive) |  | 53.7 µM (inactive) |  |
